Literature values in US7144857B2 (priority 2004, dated 2006).

Test system: sternal wound infections
Conditions: 416 patients, randomized to topical vancomycin; p=0.02

CN[C@H](CC(C)C)C(=O)N[C@H]1C(=O)N[C@@H](CC(N)=O)C(=O)N[C@H]2C(=O)N[C@H]3C(=O)N[C@H](C(=O)N[C@H](C(=O)O)c4cc(O)cc(O)c4-c4cc3ccc4O)[C@H](O)c3ccc(c(Cl)c3)Oc3cc2cc(c3O[C@@H]2O[C@H](CO)[C@@H](O)[C@H](O)[C@H]2O[C@H]2C[C@](C)(N)[C@H](O)[C@H](C)O2)Oc2ccc(cc2Cl)[C@H]1O [topical vancomycin, vancomycin]
decrease of the rate of sternal infection: 7 factor
